Source: patent publication US20260103471A1, “CYCLIC UREA THIAZOLYL COMPOUNDS FOR TREATMENT OF HSV” (Assembly Biosciences, Inc., priority 2022, published 2026)
Like-named read-outs stand apart in the source and are kept apart here.

How the values were obtained:
HSV-1 = HSV-1 Antiviral Assay (Vero cells, cell viability); assay type: cell-based; settings: read-out: HSV-1 EC50
Description: Vero cells were cultured in Dulbecco's Modified Eagle Medium (DMVEM) supplemented with […] and 100 units/mL penicillin and streptomycin. The cells were passaged 2-3 times per week to maintain sub-confluent densities.
Vero cells were seeded into 96-well plates at a density of 2.5×10^3 cells per well and allowed to attach overnight. Following attachment, the media was replaced with 50 μL of infection medium (DMVEM supplemented with 2% fetal bovine serum and 100 units/mL penicillin and streptomycin). A Tecan D300e digital dispenser was then used to add compounds to the culture using an 8-point 3-fold serial dilution format. The DMSO concentration was normalized to 0.5% for all treatments. Following compound addition, 50 μL of infection medium containing 80 TCID50 HSV-1 was added to the cells and incubated at 37° C. for 4 days. After the incubation, the plates were equilibrated to room temperature, the media was removed, and […] a 1:1 dilution of Cell titer glow and phosphate buffered saline was added to the cells. Following a 5-minute incubation, cell viability was quantified by measuring luminance using a Tecan Infinite M1000 Pro plate reader.

HSV-2 G strain = assay: HSV-2 Antiviral Assay (Vero cells, cell viability); assay type: cell-based; settings: Human alphaherpesvirus 2, Vero, 120 h, Vero cells, 160 TCID50 HSV-2 G strain, 5 days, cell viability
Outline: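 Vero cells (1.0×10^4/well, attached overnight) given 8-point 3-fold compound dilutions (0.5% DMSO) then infected with 160 TCID50 HSV-2 G strain in 2% FBS medium for 5 days at 37 °C. Protection read as cell viability by WST-8 absorbance at 460 and 620 nm after 3 h.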

[1] = Human alphaherpesvirus 1, 96 h, Vero cells, 80 TCID50 HSV-1, 4 days, cell viability

SMILES | EC50 (HSV-1; [1]) [nM] | EC50 (HSV-2 G strain) [nM] | EC50 (HSV-1; Human alphaherpesvirus 1, Vero, 96 h) [nM]
Cc1nc(N2CCCN(c3ccc(-c4cc(F)ccc4F)cc3)C2=O)sc1[S@@](C)(=N)=O (single isomer, unassigned) [Compound 140] | 100 to 1000 | 100 to 1000 | –
Cc1nc(N2CCCN(c3ccc(-c4cc(F)ccc4F)cc3)C2=O)sc1[S@](C)(=N)=O (single isomer, unassigned) [Compound 141] | < 100 | < 100 | –
Cc1nc(N2CC3(CC3)CN(c3ccc(-c4cc(F)ccc4F)cc3)C2=O)sc1[S@](C)(=N)=O (single isomer, unassigned) [Compound 156] | < 100 | < 100 | –
Cc1nc(N2CC3(CC3)CN(c3ccc(-c4cc(F)ccc4F)cc3)C2=O)sc1[S@@](C)(=N)=O (single isomer, unassigned) [Compound 157] | 100 to 1000 | < 100 | –
Cc1nc(N2CCCN([C@@H](C)c3cccc(-c4cc(F)ccc4F)c3)C2=O)sc1S(N)(=O)=O (single isomer, unassigned) [Compound 175] | 1000 to 5000 | 1000 to 5000 | –
Cc1nc(N2CCCN([C@H](C)c3cccc(-c4cc(F)ccc4F)c3)C2=O)sc1S(N)(=O)=O (single isomer, unassigned) [Compound 176] | 1000 to 5000 | 1000 to 5000 | –
Cc1nc(N2CCCN([C@H](C)c3cccc(-c4ccccc4F)c3)C2=O)sc1S(N)(=O)=O (single isomer, unassigned) [Compound 178] | 1000 to 5000 | 1000 to 5000 | –
Cc1nc(N2C[C@H](C)CN(c3ccc(-c4ccccc4Cl)cc3)C2=O)sc1S(N)(=O)=O (single isomer, unassigned) [Compound 322] | < 100 | < 100 | –
Cc1nc(N2C[C@@H](C)CN(c3ccc(-c4ccccc4Cl)cc3)C2=O)sc1S(N)(=O)=O (single isomer, unassigned) [Compound 323] | < 100 | < 100 | –
Cc1nc(N2C[C@H](C(C)(C)O)CN(c3ccc(-c4cc(F)ccc4F)cc3)C2=O)sc1S(N)(=O)=O (single isomer, unassigned) [Compound 343] | < 100 | < 100 | –
Cc1nc(N2C[C@H](C#N)CN(c3ccc(-c4cc(F)ccc4F)cc3)C2=O)sc1S(N)(=O)=O (single isomer, unassigned) [Compound 361] | < 100 | < 100 | –
Cc1nc(N2CC3(CC3)CN(c3ccc(-c4ccccc4F)cc3)C2=O)sc1S(C)(=N)=O (centres unmarked) [Compound 158] | 100 to 1000 | – | –
Cc1nc(N2CCCN(c3ccc(-c4cc(F)ccc4F)cc3)C2=O)sc1S(=O)(=O)C(C)C [Compound 162, 1-(2′,5′-Difluoro-[1,1′-biphenyl]-4-yl)-3-(5-(isopropylsulfonyl)-4-methylthiazol-2-yl) tetrahydropyrimidin-2(1H)-one] | 100 to 1000 | – | –
Cc1nc(N2CCCN(c3ccc(-c4cc(F)ccc4F)cc3)C2=O)sc1S(=O)(=O)F [Compound 165] | – | – | 1000 to 5000
CS(=O)(=O)c1cnc(N2CCCN(c3ccc(-c4cc(F)ccc4F)cc3)C2=O)s1 [Compound 167] | 100 to 1000 | – | –
Cc1nc(N2CCCN(c3ccc(-c4ccccc4F)cc3)C2=O)sc1[S+](C)[O-] (centres unmarked) [Compound 168] | 100 to 1000 | – | –
NS(=O)(=O)c1sc(N2CCCN(c3ccc(-c4cc(F)ccc4F)cc3)C2=O)nc1C(F)(F)F [Compound 169, 2-(3-(2′,5′-Difluoro-[1,1′-biphenyl]-4-yl)-2-oxotetrahydropyrimidin-1(2H)-yl)-4-(trifluoromethyl) thiazole-5-sulfonamide] | < 100 | – | –
NS(=O)(=O)c1sc(N2CCCN(c3ccc(-c4ccccc4F)cc3)C2=O)nc1C(F)(F)F [Compound 170] | < 100 | – | –
Cc1nc(N2CCCN(C(C)c3cccc(-c4ccccc4F)c3)C2=O)sc1S(N)(=O)=O (centres unmarked) [Compound 177] | 1000 to 5000 | – | –
Cc1nc(N2CCCN(Cc3cccc(-c4cc(F)ccc4F)c3)C2=O)sc1S(=O)(=O)NC1CC1 [Compound 180] | 100 to 1000 | – | –
Cc1nc(N2CCCN(Cc3cccc(-c4ccccc4)c3)C2=O)sc1S(=O)(=O)NC1CC1 [Compound 183] | 100 to 1000 | – | –
